Assay results as given in patent US10570117B2, “Phenylimidazole compound” (Otsuka Pharmaceutical Factory, Inc., priority 2015, dated 2020).
Converted amounts (≈) assume the structure as drawn. Like-named read-outs stand apart in the source and are kept apart here.

How the values were obtained:
[1] = Solubility in gastric juice or intestinal juice model fluid (precipitation method using DMSO); format: physicochemical; conditions: room temperature
Protocol: Solubility in Gastric Juice or Intestinal Juice Model Fluid
Measurement was performed by a precipitation method using DMSO. Specifically, each of the dimethyl sulfoxide (DMSO) solutions of the compounds was individually added to 1st fluid for Disintegration Test of Japanese Pharmacopoeia (pH: 1.2) or 2nd fluid for Disintegration Test of Japanese Pharmacopoeia (pH: 6.8), and the mixtures were stirred by shaking at room temperature for 24 hours. Subsequently, insoluble substances in each mixture were removed by filtration, and the UV absorption of each filtrate was measured. The obtained values were individually applied to the calibration curves of the compounds prepared in advance to calculate the concentrations of the compounds dissolved (μg/mL).

[2] = pH 1.2, simulated gastric fluid, kinetic from dmso stock, 1st fluid for Disintegration Test of Japanese Pharmacopoeia (pH: 1.2), read-out: Solubility (μg/mL) 1st fluid
[3] = pH 6.8, kinetic from dmso stock, 2nd fluid for Disintegration Test of Japanese Pharmacopoeia (pH: 6.8), read-out: Solubility (μg/mL) 2nd fluid

| solubility at 24 h [1, 2] [µg/mL] | solubility at 24 h [1, 3] [µg/mL] | melting point | Structure (SMILES) |
| --- | --- | --- | --- |
| 86.6 (≈ 197 µM) | 0.9 (≈ 2.05 µM) | 167 to 169 °C | COc1cc(OCc2ccc(C(F)(F)F)nc2)ccc1-c1cnc(C2CC(F)(F)C2)[nH]1 [Example 4] |
| 84 (≈ 198 µM) | 40.2 (≈ 94.7 µM) | 69 to 89 °C | COc1cc(OCc2ncccc2C#N)ccc1-c1cnc(C2CCC(F)(F)CC2)[nH]1 [Example 7] |
| 83.6 (≈ 197 µM) | < 0.3 | 195 to 197 °C | COc1cc(OCc2cccc(C#N)n2)ccc1-c1cnc(C2CCC(F)(F)CC2)[nH]1 [Example 8] |
| 8.7 (≈ 19.6 µM) | 1.3 (≈ 2.93 µM) | 176 to 178 °C | COc1cc(OCc2ccc(C(F)(F)F)nc2)ccc1-c1c[nH]c(-c2ccc(F)cn2)n1 [Example 26] |
| 3 (≈ 6.32 µM) | 0.6 (≈ 1.26 µM) | 267 to 269 °C | COc1cc(-c2nc(-c3ccc(Cl)cn3)[nH]c2C)ccc1OCc1ccc(C(F)(F)F)nc1 [Example 29] |
| 24 (≈ 50.5 µM) | 0.6 (≈ 1.26 µM) | 228 to 230 °C (dec.) | COc1cc(-c2nc(-c3ccc(Cl)nc3)[nH]c2C)ccc1OCc1ccc(C(F)(F)F)cn1 [Example 30] |
| 7.7 (≈ 16.2 µM) | 1.6 (≈ 3.37 µM) | 168 to 171 °C | COc1cc(-c2nc(-c3ccc(Cl)cn3)[nH]c2C)ccc1OCc1ccc(C(F)(F)F)cn1 [Example 31] |
| 5.6 (≈ 12.2 µM) | 0.6 (≈ 1.3 µM) | 216 to 217 °C | COc1cc(OCc2cc(C(F)(F)F)ccn2)ccc1-c1c[nH]c(-c2ccc(Cl)nc2)n1 [Example 37] |
| 23.3 (≈ 52.4 µM) | 1.3 (≈ 2.93 µM) | 152 to 154 °C | COc1cc(OCc2ccc(C(F)(F)F)cn2)ccc1-c1c[nH]c(-c2ccc(F)cn2)n1 [Example 41] |
| > 86 | 4.6 (≈ 10.7 µM) | 62 to 73 °C | COc1cc(OCc2ccc(C(F)(F)F)nc2)ccc1-c1c[nH]c(C2CCCCC2)n1 [Example 53] |
| 94.4 (≈ 191 µM) | 16.5 (≈ 33.3 µM) | 227 to 231 °C (dec.) | COc1cc(OCc2ccc(C(F)(F)F)cn2)ccc1-c1c[nH]c(-c2ccc(N3CCCC3)nc2)n1 [Example 58] |
| 8.8 (≈ 21.1 µM) | 1.1 (≈ 2.63 µM) | 235 to 239 °C (dec.) | COc1cc(OCc2cccc(C#N)n2)ccc1-c1c[nH]c(-c2ccc(Cl)nc2)n1 [Example 60] |
| > 101 | 1.6 (≈ 3.42 µM) | 232 to 237 °C | COc1cc(OCc2ccc(C(F)(F)F)cn2)ccc1-c1c[nH]c(C2CCC(F)(F)CC2)n1 [Example 61] |
| > 101 | 1.3 (≈ 2.78 µM) | > 250 °C | COc1cc(-c2c[nH]c(C3CCC(F)(F)CC3)n2)ccc1OCc1ccc(C(F)(F)F)cn1 [Example 62] |
| 82.2 (≈ 165 µM) | 12.5 (≈ 25.1 µM) | 155 to 168 °C (dec.) | COc1cc(-c2c[nH]c(C3CCC(F)(F)CC3)n2)cc(OC)c1OCc1ccc(C(F)(F)F)cn1 [Example 63] |
| 56.2 (≈ 126 µM) | 2.6 (≈ 5.84 µM) | 147 to 150 °C | COc1cc(-c2c[nH]c(C3CCC(C)CC3)n2)ccc1OCc1ccc(C(F)(F)F)cn1 (stereo not shown) [Example 64] |
| 56.9 (≈ 111 µM) | 0.9 (≈ 1.75 µM) | 144 to 168 °C | COc1cc(-c2c[nH]c(C34CC5CC(CC(C5)C3)C4)n2)cc(OC)c1OCc1ccc(C(F)(F)F)cn1 [Example 66] |
| 93.5 (≈ 193 µM) | 0.4 (≈ 0.827 µM) | 209 to 217 °C | COc1cc(-c2c[nH]c(C34CC5CC(CC(C5)C3)C4)n2)ccc1OCc1ccc(C(F)(F)F)cn1 [Example 67] |
| 5.3 (≈ 10.9 µM) | 1.3 (≈ 2.67 µM) | 159 to 161 °C | COc1cc(-c2c[nH]c(C3CCC(C(C)(C)C)CC3)n2)ccc1OCc1ccc(C(F)(F)F)cn1 (stereo not shown) [Example 69] |
| 53.6 (≈ 113 µM) | 1.8 (≈ 3.79 µM) | 177 to 179 °C | COc1cc(-c2c[nH]c(C3CCCCCC3)n2)cc(OC)c1OCc1ccc(C(F)(F)F)cn1 [Example 74] |
| 83.1 (≈ 187 µM) | 1 (≈ 2.24 µM) | 202 to 204 °C (dec.) | COc1cc(OCc2ccc(C(F)(F)F)cn2)ccc1-c1c[nH]c(C2CCCCCC2)n1 [Example 75] |
| < 8.5 | 1 (≈ 2.17 µM) | 183 to 186 °C | COc1cc(-c2c[nH]c(C3CCCCC3)n2)cc(OC)c1OCc1ccc(C(F)(F)F)cn1 [Example 76] |
| > 83 | 20.6 (≈ 49.3 µM) | 207 to 210 °C | COc1cc(-c2c[nH]c(C3CCCC3)n2)ccc1OCc1ccc(C(F)(F)F)cn1 [Example 78] |
| 78.7 (≈ 182 µM) | 5.8 (≈ 13.4 µM) | 135 to 145 °C | COc1cc(-c2c[nH]c(C3CCCCC3)n2)ccc1OCc1ccc(C(F)(F)F)cn1 [Example 81] |

| solubility at 24 h [1, 2] [µg/mL] | solubility at 24 h [1, 3] [µg/mL] | melting point | Structure (SMILES) |
| --- | --- | --- | --- |
| > 78 | 41.1 (≈ 106 µM) | 153 to 155 °C | COc1cc(-c2c[nH]c(C3CC3)n2)ccc1OCc1ccc(C(F)(F)F)cn1 [Example 82] |
| 27.8 (≈ 66.6 µM) | 2.9 (≈ 6.95 µM) | 157 to 160 °C | COc1cc(OCc2ccc(Br)cc2F)ccc1-c1c[nH]c(C2CC2)n1 [Example 83] |
| 85.4 (≈ 194 µM) | 1 (≈ 2.27 µM) | 201 to 203 °C (dec.) | COc1cc(-c2c[nH]c(-c3ccc(C)nc3)n2)ccc1OCc1ccc(C(F)(F)F)cn1 [Example 85] |
| 73.5 (≈ 157 µM) | < 0.3 | 218 to 220 °C (dec.) | COc1cc(OCc2ccc(Br)cc2F)ccc1-c1c[nH]c(-c2ccc(C)nc2)n1 [Example 86] |
| 39.4 (≈ 92.4 µM) | 0.7 (≈ 1.64 µM) | 217 to 220 °C | COc1cc(-c2c[nH]c(-c3ccccn3)n2)ccc1OCc1ccc(C(F)(F)F)cn1 [Example 87] |
| 54.1 (≈ 127 µM) | 0.5 (≈ 1.17 µM) | 214 to 216 °C | COc1cc(OCc2ccc(C(F)(F)F)cn2)ccc1-c1c[nH]c(-c2ccccn2)n1 [Example 88] |
| 42.8 (≈ 94.2 µM) | 0.6 (≈ 1.32 µM) | 143 to 146 °C | COc1cc(OCc2ccc(Br)cc2F)ccc1-c1c[nH]c(-c2ccccn2)n1 [Example 91] |
| 10 (≈ 21.7 µM) | 0.9 (≈ 1.95 µM) | > 280 °C | COc1cc(-c2c[nH]c(-c3ccc(Cl)nc3)n2)ccc1OCc1ccc(C(F)(F)F)cn1 [Example 93] |
| 8.7 (≈ 18.9 µM) | 0.9 (≈ 1.95 µM) | 215 to 217 °C | COc1cc(OCc2ccc(C(F)(F)F)cn2)ccc1-c1c[nH]c(-c2ccc(Cl)nc2)n1 [Example 94] |
| 15.2 (≈ 30.7 µM) | 2.2 (≈ 4.45 µM) | 201 to 203 °C | COc1cc(-c2c[nH]c(-c3ccc(C(F)(F)F)nc3)n2)ccc1OCc1ccc(C(F)(F)F)cn1 [Example 97] |
| 37.1 (≈ 81.7 µM) | 1.3 (≈ 2.86 µM) | 226 to 230 °C | COc1cc(OCc2ccc(Br)cc2F)ccc1-c1c[nH]c(-c2ccncc2)n1 [Example 98] |
| 92.5 (≈ 193 µM) | 8.9 (≈ 18.6 µM) | 164 to 186 °C | COc1cc(OCc2ncc(C(F)(F)F)cc2F)ccc1-c1cnc(-c2ccc(Cl)nc2)[nH]1 [Example 102] |
| 27.6 (≈ 56.4 µM) | < 0.3 | 219 to 225 °C | COc1cc(OCc2ncc(Br)cc2F)ccc1-c1cnc(-c2ccc(Cl)nc2)[nH]1 [Example 105] |
| 11.3 (≈ 25.4 µM) | 2.7 (≈ 6.08 µM) | 183 to 186 °C | COc1cc(OCc2cc(C(F)(F)F)ccn2)ccc1-c1cnc(-c2ccc(F)nc2)[nH]1 [Example 114] |
| 15.5 (≈ 35 µM) | 2 (≈ 4.51 µM) | 125 to 135 °C | COc1cc(OCc2ccc(C(F)(F)F)cc2)ccc1-c1cnc(-c2ccc(F)nc2)[nH]1 [Example 115] |
| 24.1 (≈ 54.2 µM) | < 1.6 | 144 to 146 °C | COc1cc(-c2cnc(-c3ccc(F)nc3)[nH]2)ccc1OCc1ccc(C(F)(F)F)nc1 [Example 116] |
| 44.7 (≈ 113 µM) | 5.2 (≈ 13.2 µM) | 68 to 79 °C | COc1cc(-c2c[nH]c(-c3ccc(F)nc3)n2)ccc1OCc1ncccc1F [Example 119] |
|  |  | 236 to 238 °C | COc1cc(OCc2ccnc(C(F)(F)F)c2)ccc1-c1[nH]c(-c2ccc(F)nc2)nc1Cl [Example 272] |
|  |  | 190 to 193 °C | COc1cc(OCc2cccc(C(F)(F)F)n2)ccc1-c1[nH]c(-c2ccc(Cl)nc2)nc1Cl [Example 282] |
|  |  | 172 to 175 °C | COc1cc(OCc2ncc(Cl)cc2F)ccc1-c1[nH]c(-c2ccc(F)nc2)nc1Cl [Example 283] |
|  |  | 183 to 185 °C | COc1cc(OCc2ccc(Br)cc2F)ccc1-c1[nH]c(-c2ccc(F)nc2)nc1Cl [Example 284] |
|  |  | 163 to 166 °C | COc1cc(OCc2ccc(Cl)cc2F)ccc1-c1[nH]c(-c2ccc(F)nc2)nc1Cl [Example 286] |
|  |  | 149 to 151 °C | COc1cc(OCc2ccc(C(F)(F)F)nc2)ccc1-c1c(Cl)nc(-c2ccc(Cl)nc2)n1C [Example 307] |
|  |  | 194 to 196 °C | COc1cc(OCc2ccc(C(F)(F)F)nc2)ccc1-c1[nH]c(-c2ccc(F)nc2)nc1F [Example 320] |
